Experimental data reported in ChEMBL document CHEMBL5537162, “Development of Antibacterial Peptides with Membrane Disruption and Folate Pathway Inhibitory Activities against Methicillin-Resistant Staphylococcus aureus” (J Med Chem, 2024).
Converted amounts (≈) assume the structure as drawn. The source made the active and inactive calls. The calls are words filed in the database; no cut-off is given here.

Legend:
[1] = Selectivity index, ratio of IC50 for antiproliferative activity against HEK293T cells assessed as reduction in cell viability to MIC for antibacterial activity against methicillin-resistant Staphylococcus aureus assessed as bacterial growth inhibition; type: toxicity, cell-based; settings: human, read-out: Selectivity Index
[2] = Hemolytic activity in mouse RBC assessed as hemolysis at 320 uM incubated for 1 hrs by spectrophotometric analysis relative to control; type: toxicity, cell-based, Erythrocyte; settings: mouse red blood cells (erythrocytes), read-out: %max
Staphylococcus aureus [3] = assay: Antibacterial activity against methicillin-resistant Staphylococcus aureus assessed as bacterial growth inhibition incubated for 24 hrs by CLSI based micro-broth dilution assay; type: functional
[4] = Antiproliferative activity against HEK293T cells assessed as reduction in cell viability measured for 48 hrs by MTT assay; type: toxicity, cell-based, HEK-293T; settings: human
[5] = (§1) Hemolytic activity in mouse RBC assessed as hemolysis incubated for 1 hrs by spectrophotometric analysis; type: toxicity, cell-based, Erythrocyte; settings: mouse red blood cells (erythrocytes)
Erythrocyte = assay: as §1; type: toxicity, cell-based; settings: erythrocyte, 1 h
HEK-293T = assay: Antiproliferative activity against HEK293T cells assessed as reduction in cell viability at 2.5 to 320 uM measured for 48 hrs by MTT assay relative to control; type: toxicity, cell-based; settings: human, dose 2.5-320 µM
Staphylococcus aureus [6] = assay: Antibacterial activity against methicillin-resistant Staphylococcus aureus 18475 assessed as bacterial growth inhibition incubated for 24 hrs by CLSI based micro-broth dilution assay; type: functional
Staphylococcus aureus [7] = assay: Antibacterial activity against methicillin-resistant Staphylococcus aureus 18908 assessed as bacterial growth inhibition incubated for 24 hrs by CLSI based micro-broth dilution assay; type: functional
Staphylococcus aureus [8] = assay: Antibacterial activity against methicillin-resistant Staphylococcus aureus 19167 assessed as bacterial growth inhibition incubated for 24 hrs by CLSI based micro-broth dilution assay; type: functional
Staphylococcus aureus [9] = assay: Antibacterial activity against methicillin-resistant Staphylococcus aureus 18878 assessed as bacterial growth inhibition incubated for 24 hrs by CLSI based micro-broth dilution assay; type: functional
Staphylococcus aureus [10] = assay: Antibacterial activity against methicillin-resistant Staphylococcus aureus 19423 assessed as bacterial growth inhibition incubated for 24 hrs by CLSI based micro-broth dilution assay; type: functional
Staphylococcus aureus [11] = assay: Antibacterial activity against methicillin-resistant Staphylococcus aureus 19498 assessed as bacterial growth inhibition incubated for 24 hrs by CLSI based micro-broth dilution assay; type: functional
Staphylococcus aureus [12] = assay: Antibacterial activity against Methicillin-resistant Staphylococcus aureus infected in ICR mouse skin infection model assessed as reduction in inflammatory infiltration at 5 mg/kg, sc by H and E staining based microscopic analysis; type: functional, organism-based
Staphylococcus aureus [13] = assay: Antibacterial activity against methicillin-resistant Staphylococcus aureus 18858 assessed as bacterial growth inhibition incubated for 24 hrs by CLSI based micro-broth dilution assay; type: functional
Staphylococcus aureus [14] = assay: Antibacterial activity against Methicillin-resistant Staphylococcus aureus infected in ICR mouse skin infection model assessed as reduction in bacterial content at 5 mg/kg, sc measured upto 10 days; type: functional, organism-based; settings: time <= 10.0 day
Staphylococcus aureus [15] = assay: Antibacterial activity against methicillin-resistant Staphylococcus aureus 18466 assessed as bacterial growth inhibition incubated for 24 hrs by CLSI based micro-broth dilution assay; type: functional
Staphylococcus aureus [16] = assay: Antibacterial activity against methicillin-resistant Staphylococcus aureus 18567 assessed as bacterial growth inhibition incubated for 24 hrs by CLSI based micro-broth dilution assay; type: functional
Staphylococcus aureus [17] = assay: Antibacterial activity against methicillin-resistant Staphylococcus aureus 19047 assessed as bacterial growth inhibition incubated for 24 hrs by CLSI based micro-broth dilution assay; type: functional
Staphylococcus aureus [18] = assay: Antibacterial activity against Methicillin-resistant Staphylococcus aureus infected in ICR mouse skin infection model assessed as reduction in skin abscess volume; type: functional, organism-based

H-LRPLARRPIRRIRRAW-NH2
selectivity ratio [1]: 6.67
hemolysis at 1 h, 320 µM [2]: 8.74%
MIC (Staphylococcus aureus [3]): > 48 µM
IC50 at 48 h [4]: > 320 µM
HC50 at 1 h [5]: > 320 µM
HC10 (Erythrocyte): > 320 µM

H-RRRVARRVFWFVRRAV-NH2
selectivity ratio [1]: 13.3
hemolysis at 1 h, 320 µM [2]: 8.25%
MIC (Staphylococcus aureus [3]): 24 µM
IC50 at 48 h [4]: > 320 µM
HC50 at 1 h [5]: > 320 µM
HC10 (Erythrocyte): > 320 µM

H-KASVSVKVTASLSKAW-NH2
selectivity ratio [1]: 6.67
hemolysis at 1 h, 320 µM [2]: 7.51%
MIC (Staphylococcus aureus [3]): > 48 µM
IC50 at 48 h [4]: > 320 µM
HC50 at 1 h [5]: > 320 µM
HC10 (Erythrocyte): > 320 µM

H-RRRVARRVIRFIRRAW-NH2
selectivity ratio [1]: 26.7
hemolysis at 1 h, 320 µM [2]: 10.2%
MIC (Staphylococcus aureus [3]): 12 µM
IC50 at 48 h [4]: > 320 µM
HC50 at 1 h [5]: > 320 µM
HC10 (Erythrocyte): 320 µM

H-WARIARRAIRAWRRWW-NH2
selectivity ratio [1]: 26.7
hemolysis at 1 h, 320 µM [2]: 20.1%
MIC (Staphylococcus aureus [3]): 12 µM
IC50 at 48 h [4]: > 320 µM
HC50 at 1 h [5]: > 320 µM
HC10 (Erythrocyte): 75.19 µM
Activity (HEK-293T): 62.65%

H-RRWWWRRWWWRRRRWW-NH2
selectivity ratio [1]: 6.67
hemolysis at 1 h, 320 µM [2]: 51.3%
MIC (Staphylococcus aureus [3]): 48 µM
IC50 at 48 h [4]: > 320 µM
HC50 at 1 h [5]: > 320 µM
HC10 (Erythrocyte): 25.91 µM
Activity (HEK-293T): 55.74%

H-KARVSVKVTASLSKAW-NH2
selectivity ratio [1]: 6.67
hemolysis at 1 h, 320 µM [2]: 7.57%
MIC (Staphylococcus aureus [3]): > 48 µM
IC50 at 48 h [4]: > 320 µM
HC50 at 1 h [5]: > 320 µM
HC10 (Erythrocyte): > 320 µM

CN[C@H](CC(C)C)C(=O)N[C@H]1C(=O)N[C@@H](CC(N)=O)C(=O)N[C@H]2C(=O)N[C@H]3C(=O)N[C@H](C(=O)N[C@H](C(=O)O)c4cc(O)cc(O)c4-c4cc3ccc4O)[C@H](O)c3ccc(c(Cl)c3)Oc3cc2cc(c3O[C@@H]2O[C@H](CO)[C@@H](O)[C@H](O)[C@H]2O[C@H]2C[C@](C)(N)[C@H](O)[C@H](C)O2)Oc2ccc(cc2Cl)[C@H]1O [VANCOMYCIN]
selectivity ratio [1]: 320
MIC (Staphylococcus aureus [6]): 1 µM (≈ 1.45 µg/mL)
MIC (Staphylococcus aureus [7]): 1 µM (≈ 1.45 µg/mL)
MIC (Staphylococcus aureus [8]): 1 µM (≈ 1.45 µg/mL)
hemolysis at 1 h, 320 µM [2]: 6.24%
MIC (Staphylococcus aureus [9]): 1 µM (≈ 1.45 µg/mL)
MIC (Staphylococcus aureus [10]): 1 µM (≈ 1.45 µg/mL)
MIC (Staphylococcus aureus [3]): 1 µM (≈ 1.45 µg/mL)
IC50 at 48 h [4]: > 320 µM
HC50 at 1 h [5]: > 320 µM
HC10 (Erythrocyte): > 320 µM
MIC (Staphylococcus aureus [11]): 1 µM (≈ 1.45 µg/mL)
Activity (Staphylococcus aureus [12]): Active
MIC (Staphylococcus aureus [13]): 1 µM (≈ 1.45 µg/mL)
Activity (Staphylococcus aureus [14]): Active
MIC (Staphylococcus aureus [15]): 1 µM (≈ 1.45 µg/mL)
MIC (Staphylococcus aureus [16]): 1 µM (≈ 1.45 µg/mL)
MIC (Staphylococcus aureus [17]): 1 µM (≈ 1.45 µg/mL)

H-WRWWRRRRWWRWRRWW-NH2
selectivity ratio [1]: 6.67
hemolysis at 1 h, 320 µM [2]: 40.3%
MIC (Staphylococcus aureus [3]): 48 µM
IC50 at 48 h [4]: > 320 µM
HC50 at 1 h [5]: > 320 µM
HC10 (Erythrocyte): 33.2 µM
Activity (HEK-293T): 59.04%

H-LRRFARRLIRRIRRAW-NH2
selectivity ratio [1]: 26.7
hemolysis at 1 h, 320 µM [2]: 7.16%
MIC (Staphylococcus aureus [3]): 12 µM
IC50 at 48 h [4]: > 320 µM
HC50 at 1 h [5]: > 320 µM
HC10 (Erythrocyte): > 320 µM

H-KASVSVKVTASLSKAWTNSQ-NH2
selectivity ratio [1]: 6.67
hemolysis at 1 h, 320 µM [2]: 6.24%
MIC (Staphylococcus aureus [3]): > 48 µM
IC50 at 48 h [4]: > 320 µM
HC50 at 1 h [5]: > 320 µM
HC10 (Erythrocyte): > 320 µM

H-KARVAVKVIRFLYKAW-NH2
selectivity ratio [1]: 26.7
hemolysis at 1 h, 320 µM [2]: 6.36%
MIC (Staphylococcus aureus [3]): 12 µM
IC50 at 48 h [4]: > 320 µM
HC50 at 1 h [5]: > 320 µM
HC10 (Erythrocyte): > 320 µM

H-LFRVVRRVVRFIRRAA-NH2
selectivity ratio [1]: 26.7
hemolysis at 1 h, 320 µM [2]: 7.53%
MIC (Staphylococcus aureus [3]): 12 µM
IC50 at 48 h [4]: > 320 µM
HC50 at 1 h [5]: > 320 µM
HC10 (Erythrocyte): > 320 µM

H-RARVAVRVIRFLYRAW-NH2
selectivity ratio [1]: 26.7
hemolysis at 1 h, 320 µM [2]: 9.34%
MIC (Staphylococcus aureus [3]): 12 µM
IC50 at 48 h [4]: > 320 µM
HC50 at 1 h [5]: > 320 µM
HC10 (Erythrocyte): 320 µM

COc1cccc(OC)c1C(=O)N[C@@H]1C(=O)N2[C@@H]1SC(C)(C)[C@@H]2C(=O)O [METHICILLIN]
MIC (Staphylococcus aureus [6]): > 480 µM
MIC (Staphylococcus aureus [7]): > 480 µM
MIC (Staphylococcus aureus [8]): > 480 µM
Activity (Staphylococcus aureus [18]): Active
MIC (Staphylococcus aureus [9]): > 480 µM
MIC (Staphylococcus aureus [10]): > 480 µM
MIC (Staphylococcus aureus [11]): > 480 µM
MIC (Staphylococcus aureus [13]): > 480 µM
MIC (Staphylococcus aureus [15]): > 480 µM
MIC (Staphylococcus aureus [16]): > 480 µM
MIC (Staphylococcus aureus [17]): > 480 µM

H-RRWIARRAIWRRRRWW-NH2
selectivity ratio [1]: 6.67
hemolysis at 1 h, 320 µM [2]: 17.2%
MIC (Staphylococcus aureus [3]): 48 µM
IC50 at 48 h [4]: > 320 µM
HC50 at 1 h [5]: > 320 µM
HC10 (Erythrocyte): 92.35 µM
Activity (HEK-293T): 58.94%

H-RARVRVRVRRFLRRRW-NH2
selectivity ratio [1]: 6.67
hemolysis at 1 h, 320 µM [2]: 11.3%
MIC (Staphylococcus aureus [3]): > 48 µM
IC50 at 48 h [4]: > 320 µM
HC50 at 1 h [5]: > 320 µM
HC10 (Erythrocyte): 320 µM

Cc1onc(-c2ccccc2)c1C(=O)N[C@@H]1C(=O)N2[C@@H]1SC(C)(C)[C@@H]2C(=O)O [OXACILLIN]
MIC (Staphylococcus aureus [6]): > 480 µM
MIC (Staphylococcus aureus [7]): > 480 µM
MIC (Staphylococcus aureus [8]): > 480 µM
MIC (Staphylococcus aureus [9]): > 480 µM
MIC (Staphylococcus aureus [10]): > 480 µM
MIC (Staphylococcus aureus [11]): > 480 µM
MIC (Staphylococcus aureus [13]): > 480 µM
MIC (Staphylococcus aureus [15]): > 480 µM
MIC (Staphylococcus aureus [16]): > 480 µM
MIC (Staphylococcus aureus [17]): > 480 µM

H-KGVIFAKASVSVKVTASLSKAWTNSQ-NH2
selectivity ratio [1]: 6.67
hemolysis at 1 h, 320 µM [2]: 5.92%
MIC (Staphylococcus aureus [3]): > 48 µM
IC50 at 48 h [4]: > 320 µM
HC50 at 1 h [5]: > 320 µM
HC10 (Erythrocyte): > 320 µM

H-RRFFVRRVFFRRRRFF-OH
selectivity ratio [1]: 6.67
hemolysis at 1 h, 320 µM [2]: 30.1%
MIC (Staphylococcus aureus [3]): 48 µM
IC50 at 48 h [4]: > 320 µM
HC50 at 1 h [5]: > 320 µM
HC10 (Erythrocyte): 41.05 µM
Activity (HEK-293T): 59.65%

H-RRPLARPLIRFIRRPW-NH2
selectivity ratio [1]: 6.67
hemolysis at 1 h, 320 µM [2]: 7.57%
MIC (Staphylococcus aureus [3]): > 48 µM
IC50 at 48 h [4]: > 320 µM
HC50 at 1 h [5]: > 320 µM
HC10 (Erythrocyte): > 320 µM

H-RRRWARRIIWIIRRAW-NH2
selectivity ratio [1]: 13.3
hemolysis at 1 h, 320 µM [2]: 8.66%
MIC (Staphylococcus aureus [3]): 24 µM
IC50 at 48 h [4]: > 320 µM
HC50 at 1 h [5]: > 320 µM
HC10 (Erythrocyte): > 320 µM
